Reference: BindingDB's records for patent US117808 (Pfizer, 2023)

Target: Protein kinase C beta type Isoform 2 (Homo sapiens, UniProt P05771)
Experiment: Protein Kinase C beta 2 (PKCpII) Assay
Description: Protein Kinase C beta 2 (PKCpII) catalyzes the production of ADP from ATP that accompanies the phosphoryl transfer to the PKC Pseudosubstrate peptide (A→S, RFARKGSLRQKNV). This transfer is coupled to the oxidation of β-NADH through the activities of Pyruvate Kinase (PK) and Lactate Dehydrogenase (LDH). β-NADH conversion to NAD+ is monitored by the decrease in absorbance at 340 nm (e=6.22 cm−1 mM−1) using a Molecular Devices SPECTRA max PLUS spectrophotometer.A typical assay was carried out on a 96-well, clear microtiter plate in a Molecular Devices spectrophotometer for 20 minutes at 30° C. in 0.1 mL of assay buffer containing 50 mM HEPES, pH 7.4, 5 nM PKC, 23 units of pyruvate kinase, 33 units of lactate dehydrogenase, 0.15 mM peptide, 0.1 mM ATP, 1 mM DTT, 4 mM PEP, 8 mM MgCl2, 0.3 mM NADH, […]), 10 mg/mL PS, 50 ng/mL PMA, 7.5% DMSO and from about 10,000 nM to 0.169 nM compound inhibitor. Stock solutions of 3-sn-phosphatidyl-L-serine (PS) and phorbol-12-myristate-13-acetate (PMA) were sonicated for 30 seconds just prior to addition to assay buffer and assays were initiated by the addition of 100 μM ATP.

Sequence of Protein kinase C beta type Isoform 2 (P05771 as listed by the source): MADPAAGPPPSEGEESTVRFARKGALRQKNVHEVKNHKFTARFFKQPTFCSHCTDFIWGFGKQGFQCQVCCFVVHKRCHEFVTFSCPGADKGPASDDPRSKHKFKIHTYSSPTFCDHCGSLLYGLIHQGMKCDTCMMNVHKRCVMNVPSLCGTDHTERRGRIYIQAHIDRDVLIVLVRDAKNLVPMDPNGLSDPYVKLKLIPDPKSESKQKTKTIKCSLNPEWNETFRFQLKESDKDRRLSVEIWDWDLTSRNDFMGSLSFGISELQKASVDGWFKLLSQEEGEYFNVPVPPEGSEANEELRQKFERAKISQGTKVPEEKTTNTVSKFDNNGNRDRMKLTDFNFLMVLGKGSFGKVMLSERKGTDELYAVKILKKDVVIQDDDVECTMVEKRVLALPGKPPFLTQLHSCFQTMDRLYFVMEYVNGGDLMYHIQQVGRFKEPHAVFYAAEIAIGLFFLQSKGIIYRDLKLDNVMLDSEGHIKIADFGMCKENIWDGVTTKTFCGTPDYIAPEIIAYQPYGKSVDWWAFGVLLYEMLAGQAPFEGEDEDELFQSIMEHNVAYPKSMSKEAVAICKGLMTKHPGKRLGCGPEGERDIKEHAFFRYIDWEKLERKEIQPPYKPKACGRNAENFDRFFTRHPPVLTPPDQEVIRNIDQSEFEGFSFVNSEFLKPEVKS

Ki: 2.63 nM
SMILES: Cc1ncc(F)c(Nc2n[nH]c3c2CN(C(=O)N2C[C@@H](C)N(C)C[C@@H]2C)C3(C)C)n1 [US11220518, Ex. No. H2]
